From patent publication US20140288013A1, “METHODS AND COMPOSITIONS FOR THE MANAGEMENT OF CANCER USING 2-DG AND AN IGF-IR INHIBITOR” (priority 2011, published 2014)
Where two headings read alike, the source gives them in different places.

Assays:
H460 [1] = test: Combination index analysis of cell proliferation, H460; format: cell-based; conditions: Homo sapiens
AKT [2] = conditions: through IGF1R and PI3K; cited from earlier work
A549 = test: MTS assay, IC50 in LKB1-null NSCLC cell line A549; format: cell-based; conditions: Homo sapiens
Source text: (§1) 2000 cells were seed in each well of a 96-well plate, and exposed to BMS754807 or 2-DG at indicated concentration for 48 hrs.
(§2) Analysis focused on NSCLC cell lines with LKB1 inactivation mutation. A549 and H460 both contain a Q37 to nonsense mutation, and H157 contains exon 2 and 3 deletion. All these mutations results in the loss of LKB1 protein function. MTS assay was used to measure the IC50 of BMS754807 and 2-DG in these cells (FIG. 1).

H157 [3] = test: Combination index analysis of cell proliferation, H157; format: cell-based; conditions: Homo sapiens
H157 [4] = test: MTS assay, IC50 in LKB1-null NSCLC cell line H157; format: cell-based; conditions: Homo sapiens
Source text: as §1, §2

[5] = biological target: IGF-I and IGF-binding protein 3 (IGFBP3) (Homo sapiens, UniProt P05019+P17936); conditions: 2-DG treatments; cited from earlier work
H460 [6] = test: MTS assay, IC50 in LKB1-null NSCLC cell line H460; format: cell-based; conditions: Homo sapiens
Source text: as §1, §2

AKT [7] = test: 2-DG induced AKT phosphorylation in LKB1-null NSCLC cell lines; format: cell-based; conditions: for Akt phosphorylation induced by 2-DG: FIG. 2, cell line not named at the place; for 2-DG induced AKT phosphorylation: pre-incubated with 10 μM BMS754807 for 30 minutes, then 25 mM 2-DG
Procedure: Whether 2-DG induced AKT phosphorylation can be blocked by BMS754807 was determined. LKB1-null NSCLC cell lines was pre-incubated with 10 μM of BMS754807 for 30 minutes, and then stimulated with 25 mM 2-DG to induce phosphorylation. BMS754807 blocked 2-DG induced IGF1R and AKT phosphorylation in H460, and H157 cells.

IGF1R = test: 2-DG induced IGF1R phosphorylation in LKB1-null NSCLC cell lines; format: cell-based

IGF-I and IGF-binding protein 3 (IGFBP3), sequence (P17936 28-291, species assumed): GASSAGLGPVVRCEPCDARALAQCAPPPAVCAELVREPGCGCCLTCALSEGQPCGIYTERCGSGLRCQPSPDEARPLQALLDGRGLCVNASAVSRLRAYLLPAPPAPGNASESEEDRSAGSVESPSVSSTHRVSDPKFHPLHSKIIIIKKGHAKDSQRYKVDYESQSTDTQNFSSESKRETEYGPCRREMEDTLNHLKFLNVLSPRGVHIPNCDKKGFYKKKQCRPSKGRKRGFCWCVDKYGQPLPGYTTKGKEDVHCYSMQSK
IGF-I and IGF-binding protein 3 (IGFBP3), sequence (P05019 49-118 limits assumed, species assumed): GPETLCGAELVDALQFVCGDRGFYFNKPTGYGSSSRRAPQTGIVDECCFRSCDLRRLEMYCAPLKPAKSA

O=CC[C@@H](O)[C@H](O)[C@H](O)CO [2-DG, 2-Deoxyglucose]
viability at 2500 µM (H460 [1]; NCI-H460, 2-DG 2.5 mM, read-out: FA2-DG (fraction growth inhibition by 2-DG alone)): 95%
viability at 5000 µM (H460 [1]; NCI-H460, 2-DG 5.0 mM, read-out: FA2-DG (fraction growth inhibition by 2-DG alone)): 81%
viability at 10000 µM (H460 [1]; NCI-H460, 2-DG 10.0 mM, read-out: FA2-DG (fraction growth inhibition by 2-DG alone)): 71%
activation of prosurvival oncoprotein AKT (AKT [2]): activates
IC50 (A549; A549, MTS assay, 48 hrs, read-out: IC50): 15.7 mM
viability at 2500 µM (H157 [3]; NCI-H157, 2-DG 2.5 mM, read-out: FA2-DG (fraction growth inhibition by 2-DG alone)): 93%
viability at 5000 µM (H157 [3]; NCI-H157, 2-DG 5.0 mM, read-out: FA2-DG (fraction growth inhibition by 2-DG alone)): 80%
viability at 10000 µM (H157 [3]; NCI-H157, 2-DG 10.0 mM, read-out: FA2-DG (fraction growth inhibition by 2-DG alone)): 69%
IC50 (H157 [4]; NCI-H157, H157, MTS assay, 48 hrs, read-out: IC50): 21.8 mM
binding between IGF-I and IGFBP3 [5]: disrupted
IC50 (H460 [6]; NCI-H460, H460, MTS assay, 48 hrs, read-out: IC50): 14.1 mM

CC1(C(=O)Nc2ccc(F)nc2)CCCN1c1nc(Nc2cc(C3CC3)[nH]n2)c2cccn2n1 (stereo not shown) [BMS-754807, 1-(4-((5-cyclopropyl-1H-pyrazol-3-yl)amino)pyrrolo[2,1-f][1,2,4]triazin-2-yl)-N-(6-fluoropyridin-3-yl)-2-methylpyrrolidine-2-carboxamide]
viability at 5 µM (H460 [1]; NCI-H460, BMS-754807 5.0 uM, read-out: FABMS-754807 (fraction growth inhibition by BMS-754807 alone)): 80%
viability at 10 µM (H460 [1]; NCI-H460, BMS-754807 10.0 uM, read-out: FABMS-754807 (fraction growth inhibition by BMS-754807 alone)): 69%
IC50 (A549; A549, 48 h): 0.0166 mM
Akt phosphorylation induced by 2-DG (AKT [7]): block
Akt phosphorylation induced by 2-DG (AKT [7]; listed as BMS754807): blocked
2-DG induced AKT phosphorylation (AKT [7]; H157 cells): blocked
2-DG induced AKT phosphorylation (AKT [7]; H460 cells): blocked
viability at 5 µM (H157 [3]; NCI-H157, BMS-754807 5.0 uM, read-out: FABMS-754807 (fraction growth inhibition by BMS-754807 alone)): 99%
viability at 10 µM (H157 [3]; NCI-H157, BMS-754807 10.0 uM, read-out: FABMS-754807 (fraction growth inhibition by BMS-754807 alone)): 82%
IC50 (H157 [4]; NCI-H157, 48 h): 0.0108 mM
IC50 (H460 [6]; NCI-H460, 48 h): 0.00325 mM
2-DG induced IGF1R phosphorylation (IGF1R; FIG. 2, cell line not named at the place): blocked
2-DG induced IGF1R phosphorylation (IGF1R; H157 cells, pre-incubated with 10 μM BMS754807 for 30 minutes, then 25 mM 2-DG): blocked
2-DG induced IGF1R phosphorylation (IGF1R; H460 cells, pre-incubated with 10 μM BMS754807 for 30 minutes, then 25 mM 2-DG): blocked
